# Measured values: ChEMBL document CHEMBL1201862, “PubChem BioAssay data set” (2004)
#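 1) Cells in 96-well plates. 2) Compound, 48 h, 5 concentrations. 3) Linear interpolation between surrounding doses. 4) Unreached endpoint = highest concentration. GI50 = concentration required for 50% inhibition of growth.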 The source made the active and inactive calls. No stated cut-off is given here; in the data, active = GI50 up to about 1.1 µM and inactive = higher.
# Legend:
# Assay in all cases: inhibition of tumour cell growth, NCI panel, 48 h
# [1] = tested on: Malme-3M
# [2] = tested on: SK-MEL-2
# [3] = tested on: NCI-H226
# [4] = tested on: SK-MEL-28
# [5] = tested on: PC-3
# [6] = tested on: NCI/ADR-RES
# [7] = tested on: NCI-H460
# [8] = tested on: M14
# [9] = tested on: SN12C
# [10] = tested on: HOP-18
# [11] = tested on: MOLT-4
# [12] = tested on: MDA-MB-435
# [13] = tested on: SW-620
# [14] = tested on: ACHN
# [15] = tested on: CAKI-1
# [16] = tested on: HOP-92
# [17] = tested on: TK-10
# [18] = tested on: SR
# [19] = tested on: SF-268
# [20] = tested on: HCT-15
# [21] = tested on: MCF7
# [22] = tested on: K562
# [23] = tested on: XF498
# [24] = tested on: SNB-19
# [25] = tested on: OVCAR-3
# [26] = tested on: HT-29
# [27] = tested on: OVCAR-4
# [28] = tested on: A549
# [29] = tested on: HCT-116
# [30] = tested on: M19-MEL
# [31] = tested on: SF-295
# [32] = tested on: HOP-62
# [33] = tested on: T47D
# [34] = tested on: NCI-H23
# [35] = tested on: U-251
# [36] = tested on: SNB-78
# [37] = tested on: KM-20L2
# [38] = tested on: LOX IMVI
# [39] = tested on: DU-145
# [40] = tested on: DLD-1
# [41] = tested on: MDA-MB-231
# [42] = tested on: EKVX
# [43] = tested on: SF-539
# [44] = tested on: KM12
# [45] = tested on: DMS-273
# [46] = tested on: LXFL 529
# [47] = tested on: COLO 205
# [48] = tested on: 786-0
# [49] = tested on: SK-MEL-5
# [50] = tested on: SNB-75
# [51] = tested on: UO-31
# [52] = tested on: RPMI-8226
# [53] = tested on: UACC-62
# [54] = tested on: OVCAR-8
# [55] = tested on: HL-60
# [56] = tested on: CCRF-CEM
# [57] = tested on: DMS-114
# [58] = tested on: IGROV-1
# [59] = tested on: Hs-578T
# [60] = tested on: RXF 631
# [61] = tested on: OVCAR-5
# [62] = tested on: SK-OV-3
# [63] = tested on: UACC-257
# [64] = tested on: NCI-H522
# [65] = tested on: BT-549
# [66] = tested on: RXF 393
# [67] = tested on: HCC 2998
# [68] = tested on: MDA-N
# [69] = tested on: A498
smiles,measurement,setting,value
Oc1cc(-n2cccn2)c(O)cc1-n1cccn1,GI50,[1],30.7 µM (inactive)
same,GI50,[2],> 88.5 µM (inactive)
same,GI50,[3],62.5 µM (inactive)
same,GI50,[4],40.8 µM (inactive)
same,GI50,[5],21.6 µM (inactive)
same,GI50,[6],29.4 µM (inactive)
same,GI50,[7],> 100 µM (inactive)
same,GI50,[8],27 µM (inactive)
same,GI50,[9],19.3 µM (inactive)
same,GI50,[10],67.9 µM (inactive)
same,GI50,[11],9.55 µM (inactive)
same,GI50,[12],17.5 µM (inactive)
same,GI50,[13],19.1 µM (inactive)
same,GI50,[14],22.4 µM (inactive)
same,GI50,[15],23.6 µM (inactive)
same,GI50,[16],21 µM (inactive)
same,GI50,[17],26.8 µM (inactive)
same,GI50,[18],12.6 µM (inactive)
same,GI50,[19],55.7 µM (inactive)
same,GI50,[20],28.8 µM
same,GI50,[21],19.1 µM (inactive)
same,GI50,[22],11.2 µM (inactive)
same,GI50,[23],16.3 µM (inactive)
same,GI50,[24],> 70.1 µM (inactive)
same,GI50,[25],19.1 µM (inactive)
same,GI50,[26],23 µM (inactive)
same,GI50,[27],19 µM (inactive)
same,GI50,[28],> 86.9 µM (inactive)
same,GI50,[29],26.2 µM (inactive)
same,GI50,[30],23.7 µM (inactive)
same,GI50,[31],37.8 µM (inactive)
same,GI50,[32],> 63.1 µM (inactive)
same,GI50,[33],22.3 µM (inactive)
same,GI50,[34],43.7 µM (inactive)
same,GI50,[35],52.4 µM (inactive)
same,GI50,[36],34.8 µM (inactive)
same,GI50,[37],> 85.7 µM (inactive)
same,GI50,[38],21 µM (inactive)
same,GI50,[39],> 48.2 µM (inactive)
same,GI50,[40],32.6 µM (inactive)
same,GI50,[41],21.9 µM (inactive)
same,GI50,[42],> 69.2 µM (inactive)
same,GI50,[43],62.1 µM (inactive)
same,GI50,[44],57.7 µM (inactive)
same,GI50,[45],41.3 µM (inactive)
same,GI50,[46],19.4 µM (inactive)
same,GI50,[47],18.1 µM (inactive)
same,GI50,[48],16.6 µM (inactive)
same,GI50,[49],32.6 µM (inactive)
same,GI50,[50],> 69.2 µM (inactive)
same,GI50,[51],23.8 µM (inactive)
same,GI50,[52],15.2 µM (inactive)
same,GI50,[53],38.9 µM (inactive)
same,GI50,[54],26.2 µM (inactive)
same,GI50,[55],6.43 µM (inactive)
same,GI50,[56],7.11 µM (inactive)
same,GI50,[57],26.4 µM (inactive)
same,GI50,[58],54.6 µM (inactive)
same,GI50,[59],> 100 µM (inactive)
same,GI50,[60],> 60.8 µM (inactive)
same,GI50,[61],53.1 µM (inactive)
same,GI50,[62],> 100 µM (inactive)
same,GI50,[63],32.1 µM (inactive)
same,GI50,[64],11.5 µM (inactive)
same,GI50,[65],18.7 µM (inactive)
same,GI50,[66],16.7 µM (inactive)
same,GI50,[67],> 100 µM (inactive)
same,GI50,[68],17.6 µM (inactive)
same,GI50,[69],> 72.8 µM (inactive)
